Measured values taken from patent US6545002B1 (University of Virginia Patent Foundation, priority 1999, dated 2003).
Where two headings read alike, the source gives them in different places.

Columns and labels:
human A3 receptors (hA3) [1] = molecular target: T1, human A3 receptors (hA3) (Homo sapiens, UniProt P0DMS8); test: Displacement of [125I]AB-MECA binding at human A3 receptors expressed in HEK-293 cells (Table 4)
T1 construct: expressed in transfected cells; host or cells: HEK-293
T1 sequence (P0DMS8 1-318): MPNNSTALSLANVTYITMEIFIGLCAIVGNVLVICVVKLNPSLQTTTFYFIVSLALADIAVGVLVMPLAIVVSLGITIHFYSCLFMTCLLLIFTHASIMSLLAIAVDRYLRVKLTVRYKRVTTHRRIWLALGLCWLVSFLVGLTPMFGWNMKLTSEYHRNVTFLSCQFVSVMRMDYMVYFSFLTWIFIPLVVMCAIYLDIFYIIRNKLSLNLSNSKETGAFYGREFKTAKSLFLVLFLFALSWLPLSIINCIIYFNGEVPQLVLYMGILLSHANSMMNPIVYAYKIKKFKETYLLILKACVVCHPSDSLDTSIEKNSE

rat A2A receptors (rA2A) = molecular target: T2, rat A2A receptors (rA2A) (Rattus norvegicus, UniProt P30543); test: Displacement of [3H]CGS 21680 binding in rat striatal membranes
T2 construct: to A2A receptors from rat striatal membranes was performed as described; from tissue; host or cells: rat striatal membranes
Procedure: (§1) Bruns, R. F. et al., Naunyn-Schmiedeberg's Arch. […] Binding of [^3H]R-N^6-phenylisopropyladenosine. Schwabe, U. et al., Naunyn-Schmiedeberg's Arch. […] (Dupont NEN, Boston, Mass.) to A2A receptors from rat striatal membranes was performed as described. […] All non-radioactive compounds were initially dissolved in DMSO, and diluted with buffer to the final concentration, where the amount of DMSO never exceeded 2%. Incubations were terminated by rapid filtration over Whatman GF/B filters, using a Brandell cell harvester (Brandell, Gaithersburg, Md.). The tubes were rinsed three times with 3 mL buffer each.
(§2) At least six different concentrations of competitor, spanning 3 orders of magnitude adjusted appropriately for the IC50 of each compound, were used. IC50 values, calculated with the nonlinear regression method implemented in (Graph-Pad Prism, San Diego, Calif.), were converted to apparent Ki values as described. Linden, J., J. Cycl. Nucl.

rat A1 receptors (rA1) = molecular target: T3, rat A1 receptors (rA1) (Rattus norvegicus, UniProt P25099); test: Displacement of [3H]R-PIA binding in rat brain (cerebral cortical) membranes
T3 construct: to A1 receptors from rat cerebral cortical membranes; from tissue; host or cells: rat cerebral cortical (brain) membranes
T3 sequence (P25099 1-326): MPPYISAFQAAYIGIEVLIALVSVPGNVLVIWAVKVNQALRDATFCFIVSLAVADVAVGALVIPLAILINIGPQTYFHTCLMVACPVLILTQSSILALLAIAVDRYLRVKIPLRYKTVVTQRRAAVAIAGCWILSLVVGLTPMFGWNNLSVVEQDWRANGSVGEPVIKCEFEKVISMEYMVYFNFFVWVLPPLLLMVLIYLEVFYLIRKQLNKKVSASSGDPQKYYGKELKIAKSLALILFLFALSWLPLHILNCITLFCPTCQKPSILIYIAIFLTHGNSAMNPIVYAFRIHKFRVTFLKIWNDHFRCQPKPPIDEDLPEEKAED
Procedure: as §1, §2

[2] = molecular target: T4, recombinant human A1 receptors (hA1) (Homo sapiens, UniProt P30542); test: Radioligand binding ([3H]CPX) at recombinant human A1 receptors in HEK-293 cells
T4 sequence (P30542 1-326): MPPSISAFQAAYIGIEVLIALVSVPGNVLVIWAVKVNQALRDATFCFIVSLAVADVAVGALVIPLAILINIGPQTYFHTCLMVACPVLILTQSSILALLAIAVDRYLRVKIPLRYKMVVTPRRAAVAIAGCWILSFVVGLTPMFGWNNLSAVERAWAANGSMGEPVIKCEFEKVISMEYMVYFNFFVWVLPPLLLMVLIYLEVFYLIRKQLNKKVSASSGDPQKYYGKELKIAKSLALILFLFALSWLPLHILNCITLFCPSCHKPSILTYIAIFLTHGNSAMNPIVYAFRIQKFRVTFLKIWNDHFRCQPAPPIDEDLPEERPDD
Procedure: The potency of the xanthine derivatives at human A2B receptors was evaluated using two binding assays. […] In order to determine selectivity, the xanthines were evaluated using standard binding assays at A1, A2A, and A3 receptors.

[3] = molecular target: T5, human A2B receptors (hA2B) (Homo sapiens, UniProt P29275); test: Radioligand binding ([125I]ABOPX / [3H]ZM241385) at human A2B receptors expressed in HEK-293 cells
T5 construct: expressed in transfected cells; host or cells: HEK-293 (HEK-A2B, G418-selected)
T5 sequence (P29275 1-332): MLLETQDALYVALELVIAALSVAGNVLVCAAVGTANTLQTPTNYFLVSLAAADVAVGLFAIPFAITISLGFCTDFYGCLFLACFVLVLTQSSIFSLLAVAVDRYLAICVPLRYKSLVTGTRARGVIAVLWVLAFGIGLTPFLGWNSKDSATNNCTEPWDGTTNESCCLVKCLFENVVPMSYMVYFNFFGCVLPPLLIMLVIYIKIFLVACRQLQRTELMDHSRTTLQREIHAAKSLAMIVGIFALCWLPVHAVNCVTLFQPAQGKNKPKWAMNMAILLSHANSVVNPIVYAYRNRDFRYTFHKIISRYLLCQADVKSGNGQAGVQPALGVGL

[4] = molecular target: recombinant human A2A receptors (hA2A) (Homo sapiens, UniProt P29274); test: Radioligand binding (125I-ZM241385) at recombinant human A2A receptors in HEK-293 cells
human A3 receptors (hA3) [5] = molecular target: T1, human A3 receptors (hA3); test: Displacement of [125I]ABA binding at human A3 receptors expressed in HEK-293 cells; details: read-out: hA3 Ki or IC50
[6] = read-out: hA1 Ki or IC50, Table 2
[7] = Table 2, read-out: rA2A Ki or IC50
[8] = Table 2, read-out: hA2B Ki or IC50
[9] = read-out: hA2A Ki or IC50, Table 2
[10] = Table 2, read-out: rA1 Ki or IC50

Chain of recombinant human A2A receptors (hA2A) (P29274 whole entry): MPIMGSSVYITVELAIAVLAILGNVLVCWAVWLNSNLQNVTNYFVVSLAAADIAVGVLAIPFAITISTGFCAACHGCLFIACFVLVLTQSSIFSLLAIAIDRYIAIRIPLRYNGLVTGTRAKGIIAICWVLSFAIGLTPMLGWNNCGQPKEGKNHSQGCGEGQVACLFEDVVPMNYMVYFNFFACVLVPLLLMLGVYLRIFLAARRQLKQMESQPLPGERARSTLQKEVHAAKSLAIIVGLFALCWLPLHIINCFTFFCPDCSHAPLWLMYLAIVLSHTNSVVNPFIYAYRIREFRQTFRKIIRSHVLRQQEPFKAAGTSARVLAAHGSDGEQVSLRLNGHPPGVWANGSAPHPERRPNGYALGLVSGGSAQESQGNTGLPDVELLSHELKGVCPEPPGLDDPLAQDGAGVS
T2 sequence (P30543 whole entry): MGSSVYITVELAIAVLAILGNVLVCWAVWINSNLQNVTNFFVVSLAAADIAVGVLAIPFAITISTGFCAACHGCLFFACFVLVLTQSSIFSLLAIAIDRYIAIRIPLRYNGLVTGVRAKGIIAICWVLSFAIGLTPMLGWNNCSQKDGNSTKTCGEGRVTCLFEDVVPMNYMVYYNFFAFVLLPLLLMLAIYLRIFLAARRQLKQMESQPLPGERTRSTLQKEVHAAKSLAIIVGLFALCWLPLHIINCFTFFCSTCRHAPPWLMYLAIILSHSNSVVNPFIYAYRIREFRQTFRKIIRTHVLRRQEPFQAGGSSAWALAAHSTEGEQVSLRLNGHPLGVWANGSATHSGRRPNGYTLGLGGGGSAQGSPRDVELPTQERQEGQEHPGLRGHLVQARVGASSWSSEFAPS

Row | SMILES | Ki [2, 6] | melting point | Ki (rat A2A receptors (rA2A); [7]) | Ki [3, 8] | Ki [4, 9] | Ki (rat A1 receptors (rA1); [10]) | Ki (human A3 receptors (hA3) [5]; Table 2) | Ki (human A3 receptors (hA3) [1]) | Ki (rat A2A receptors (rA2A); Table 4, read-out: rA2A Ki) | Ki (rat A1 receptors (rA1); Table 4, read-out: rA1 Ki) | other results
1 | CCCn1c(=O)c2[nH]c(-c3ccc(OCC(=O)NN)cc3)nc2n(CCC)c1=O [Compound 4f] |  |  |  |  |  |  |  | 498 ± 139 nM | 63.8 ± 21.3 nM | 16 ± 0.5 nM | 
2 | CCCn1c(=O)c2[nH]c(-c3ccc(OCC(=O)Nc4ccc(Cl)cc4)cc3)nc2n(CCC)c1=O [Compound 31, 8-[4-[((4-Chloro)phenylcarbamoylmethyl)oxy]phenyl]-1,3-di-(n-propyl)xanthine] | 49.7 ± 14.2 nM | 309 °C | 995 ± 550 nM | 2.47 ± 0.71 nM | 187 ± 38 nM | 6.35 ± 1.47 nM | 1870 nM |  |  |  | 
3 | CCCn1c(=O)c2[nH]c(-c3ccc(OCC(=O)Nc4ccc(I)cc4)cc3)nc2n(CCC)c1=O [Compound 33, 8-[4-[((4-Iodo)phenylcarbamoylmethyl)oxy]phenyl]-1,3-di-(n-propyl)xanthine] | 293 ± 67 nM | > 310 °C | 152 ± 47 nM |  | 5140 nM | 15.7 ± 4.2 nM | 1270 nM |  |  |  | selectivity for human A2B versus human A1 receptors [3]: 140 fold; selectivity for human A2B versus human A2A receptors [3]: 2400 fold; selectivity for human A2B versus human A3 receptors [3]: 600 fold; Ki ([3]; read-out: Ki value at human A2B receptors): 2.13 nM
4 | CCCn1c(=O)c2[nH]c(-c3ccc(OCC(=O)NN4C(=O)C[C@H](NC(=O)C(F)(F)F)C4=O)cc3)nc2n(CCC)c1=O [Compound 44, 8-[4-[(Carboxymethyl)oxy]phenyl]-1,3-di-(n-propyl)xanthine N,N-[((2S)-Trifluoroacetamido)succinyl]hydrazide] |  |  |  |  |  |  |  | 1560 nM | 139 ± 32 nM | 74.3 ± 6.6 nM | rA1/hA2B ([3]; Table 4, Ki ratio): 2.5; Ki ([3]; Table 4, unmarked value, first of two binding assays, read-out: hA2B Ki): 30.2 ± 0.5 nM

Continued, in another order:

Row | Ki [2, 6] | melting point | Ki (rat A2A receptors (rA2A); [7]) | Ki [3, 8] | Ki [4, 9] | Ki (rat A1 receptors (rA1); [10]) | Ki (human A3 receptors (hA3) [5]; Table 2) | SMILES | Ki (human A3 receptors (hA3) [1]) | Ki (rat A2A receptors (rA2A); Table 4, read-out: rA2A Ki) | Ki (rat A1 receptors (rA1); Table 4, read-out: rA1 Ki) | other results
5 | 73.5 ± 23.3 nM | > 310 °C | 221 ± 36 nM | 2.35 ± 0.01 nM | 1640 nM | 7.46 ± 2.66 nM | 2300 nM | CCCn1c(=O)c2[nH]c(-c3ccc(OCC(=O)Nc4ccc(Br)cc4)cc3)nc2n(CCC)c1=O [Compound 32, 8-[4-[((4-Bromo)phenylcarbamoylmethyl)oxy]phenyl]-1,3-di-(n-propyl)xanthine] |  |  |  | 
6 |  | 302 to 303 °C |  |  |  |  |  | CCCn1c(=O)c2[nH]c(-c3ccc(/C=C/C(=O)NN4C(=O)C(C)=C(C)C4=O)cc3)nc2n(CCC)c1=O [Compound 34, 8-(4-(2-Carboxy-trans-vinyl)phenyl)-1,3-di-(n-propyl)xanthine N′,N′-[(1,2-Dimethyl)maleyl]hydrizide] |  |  |  | Ki ([2]; read-out: hA1 Ki, values marked (h), Table 3): 105 ± 5 nM; Ki (rat A2A receptors (rA2A); Table 3, read-out: rA2A Ki or IC50): 406 ± 105 nM; Ki ([3]; Table 3, read-out: hA2B Ki or IC50): 16.7 ± 3 nM; Ki ([4]; read-out: hA2A Ki, values marked (h), Table 3): 223 ± 55 nM; Ki (rat A1 receptors (rA1); Table 3, read-out: rA1 Ki or IC50): 3.94 ± 1.2 nM; Ki (human A3 receptors (hA3) [5]; Table 3): 31 ± 3.1 nM
